“Also recorded” adds a separate entry of the source.
Columns and labels:
[1] = system: hemoglobin, ferritin, TSAT, hepcidin; assay: Example 3 trial: erythropoiesis and iron parameters; assay type: in vivo, human; design: Mean increase in ferritin from baseline to highest value: unit not given here; conditions: for Mean increase in hepcidin from baseline to highest value / effect of a single dose on hemoglobin and iron indices / proportion of group in which hemoglobin increased by 2.0 g/dL: in vivo; for Hemoglobin increase ≧2.0 g/dL, n (%): intention-to-treat in safety population, anytime to day 35; for Mean increase in ferritin from baseline to highest value / Mean increase in hemoglobin from baseline to highest value / Mean increase in transferrin saturation from baseline to highest value: mean ± standard error; for effect on TSAT and serum hepcidin levels: p≦0.001; for serum hepcidin levels by day 7: remained significantly elevated on day 35
Protocol: (§1) Study visits were on Days 0 (when iron was infused), 1 (24 hours after iron infusion), 7, 14, and 35. The primary objectives were to determine the effect of iron deficiency on cFGF23 and iFGF23 levels and the effect of intravenous iron on iFGF23 and cFGF23 levels.
(§2) Randomization occurred centrally via a fax-based system. […] The complete dose was infused over 15 minutes on day 0. […] An initial test dose of 25 mg was administered slowly over 5 minutes.
(§3) Laboratory testing of blood and three-hour urine collections was performed at the screening visit and on study days 0 (when iron was infused), 1 (24 hours after iron infusion), 7, 14, and 35 (see e.g., FIG. 2A). Any subject who experienced a reduction in serum phosphate below the normal range after day 0 underwent additional phosphate measurements at 14 day intervals following day 35 until the level returned to the normal reference range. Safety evaluations of all subjects included ascertainment of adverse events, physical examinations at all study visits, and laboratory assessments. Any subject who withdrew from the study received a follow-up phone call to ascertain adverse events 30 days after they received study drug.
The pre-specified primary endpoints were changes in blood and urine markers of phosphate and bone metabolism among the evaluable population, defined as those subjects with baseline and at least one post-randomization set of FGF23 and blood and urinary phosphate levels. Secondary endpoints included the proportion of subjects achieving a hemoglobin increase […] anytime between baseline and day 35, and the change from baseline to highest hemoglobin, ferritin, and TSAT anytime during the 35-day study period. Additional safety endpoints included incidence, severity, and seriousness of adverse events, and incidence of treatment-emergent abnormal clinical laboratory values in the safety population, defined as all subjects who received the study drug regardless of subsequent laboratory testing.
Blood and urine samples were sent to a central laboratory for analysis (Covance Central Laboratory Service, Indianapolis, Ind.). Hemoglobin, blood counts, iron indices, electrolytes, and serum and urinary phosphate and creatinine were measured with standard, automated, multi-analyte techniques. Urinary fractional excretion of phosphate (FEPi) was calculated from the three-hour, morning urine collections as urinary phosphate x serum creatinine/serum phosphate x urinary creatinine. Serum levels of 25-hydroxyvitamin D and 1,25-dihydroxyvitamin D were measured in duplicate by radioimmunoassay (DiaSorin, Stillwater, Minn.) with intra-assay coefficients of variation (CV)<11.6%. Plasma C-terminal FGF23 (cFGF23) was measured in duplicate in EDTA-plasma samples using a human FGF23 immunometric assay capable of detecting both the intact peptide and its C-terminal fragments (Immutopics, San Clemente, Ca) with intra-assay CV≦3.8%. Because cFGF23 testing was performed in parallel with rolling enrollment and follow-up, all cFGF23 assay plates tested combinations of baseline and post-intervention samples from multiple study participants. Serum intact FGF23 (iFGF23) was measured in batches of baseline and post-intervention samples from multiple study participants at study end using an immunometric assay that detects the intact peptide exclusively (Kyowa Medex Company, Shizuoka, Japan) with intra-assay CV<2.7%. Serum hepcidin levels were measured on days 0, 7, and 35 using an enzyme-linked immunosorbent assay (Intrinsic LifeSciences, La Jolla, Calif.) with intra-assay CV≦19%. Urinary amino acids, glucose, albumin, and beta 2 microglobulin were measured to test for the possibility of global proximal tubular dysfunction. Urinary deoxypyridinoline cross link, and serum osteocalcin and bone-specific alkaline phosphatase were measured to assess bone turnover. […]

intact FGF23 (iFGF23) = assay: Example 3 trial: serum intact FGF23; assay type: in vivo, human; conditions: for effect on iFGF23 levels: by day 1 (24 hours); for Intact FGF23, Day 1 / Intact FGF23, Day 7 / Intact FGF23, Day 14 / Intact FGF23, Day 35: mean ± standard error, unit from the 3rd table
Protocol: as §1, §2, §3
(§4) Blood and urine samples were sent to a central laboratory for analysis (Covance Central Laboratory Service, Indianapolis, Ind.). Hemoglobin, blood counts, iron indices, electrolytes, and serum and urinary phosphate and creatinine were measured with standard, automated, multi-analyte techniques. Urinary fractional excretion of phosphate (FEPi) was calculated from the three-hour, morning urine collections as urinary phosphate x serum creatinine/serum phosphate x urinary creatinine. Serum levels of 25-hydroxyvitamin D and 1,25-dihydroxyvitamin D were measured in duplicate by radioimmunoassay (DiaSorin, Stillwater, Minn.) with intra-assay coefficients of variation (CV)<11.6%. Plasma C-terminal FGF23 (cFGF23) was measured in duplicate in EDTA-plasma samples using a human FGF23 immunometric assay capable of detecting both the intact peptide and its C-terminal fragments (Immutopics, San Clemente, Ca) with intra-assay CV≦3.8%. Because cFGF23 testing was performed in parallel with rolling enrollment and follow-up, all cFGF23 assay plates tested combinations of baseline and post-intervention samples from multiple study participants. Serum intact FGF23 (iFGF23) was measured in batches of baseline and post-intervention samples from multiple study participants at study end using an immunometric assay that detects the intact peptide exclusively (Kyowa Medex Company, Shizuoka, Japan) with intra-assay CV<2.7%. Serum hepcidin levels were measured on days 0, 7, and 35 using an enzyme-linked immunosorbent assay (Intrinsic LifeSciences, La Jolla, Calif.) with intra-assay CV≦19%. Urinary amino acids, glucose, albumin, and beta 2 microglobulin were measured to test for the possibility of global proximal tubular dysfunction. Urinary deoxypyridinoline cross link, and serum osteocalcin and bone-specific alkaline phosphatase were measured to assess bone turnover.
(§5) Baseline characteristics are presented as mean±standard error for continuous variables and as proportions for categorical variables. The association between iron indices and baseline and change in FGF23 levels was assessed with Spearman correlations. Restricted maximum likelihood-based repeated measures analyses (linear mixed models) that considered the effects of treatment, visit, and treatment x time interaction, with baseline values treated as a fixed covariate were used for the primary analyses of mean changes from baseline in continuous markers of phosphate homeostasis. The models employed unstructured covariance structures without imputing missing values. All outcome variables that were not normally distributed were analyzed after natural log-transformation. […]

[2] = system: C-terminal FGF23 (cFGF23); assay: Example 3 trial: plasma C-terminal FGF23; assay type: in vivo, human; conditions: for effect on cFGF23 levels: in vivo; for lowering of cFGF23 levels within 24 hours: intravenous iron in iron deficient women; for C-terminal FGF23, Day 1 / C-terminal FGF23, Day 7 / C-terminal FGF23, Day 14 / C-terminal FGF23, Day 35: mean ± standard error, unit from the 3rd table
Protocol: as §1, §2, §3, §4, §5

serum phosphate = conditions: previous studies (2-10); cited from earlier work
[3] = Single-dose toxicity studies; assay type: in vivo, rodents and dogs
phosphate = assay: Prior studies 1VIT04002/1VIT04003: phosphate change after FCM; assay type: in vivo, human; conditions: iron deficiency anemia secondary to heavy uterine bleeding; measured at baseline and days 7, 14, 28, 42; N=228

| Substance | Mean increase in hepcidin from baseline to highest value [1] | effect of a single dose on hemoglobin and iron indices [1] | proportion of group in which hemoglobin increased by 2.0 g/dL [1] | Hemoglobin increase ≧2.0 g/dL, n (%) [1] | Mean increase in ferritin from baseline to highest value [1] | Mean increase in hemoglobin from baseline to highest value [1] | Mean increase in transferrin saturation from baseline to highest value [1] | effect on TSAT and serum hepcidin levels [1] | serum hepcidin levels by day 7 [1] | Intact FGF23, Change from baseline (intact FGF23 (iFGF23); Day 1) | Intact FGF23, Change from baseline (intact FGF23 (iFGF23); Day 7) | Intact FGF23, Change from baseline (intact FGF23 (iFGF23); Day 14) | Intact FGF23, Change from baseline (intact FGF23 (iFGF23); Day 35) | effect on iFGF23 levels (intact FGF23 (iFGF23)) | Intact FGF23, Day 1 (intact FGF23 (iFGF23)) | Intact FGF23, Day 7 (intact FGF23 (iFGF23)) | Intact FGF23, Day 14 (intact FGF23 (iFGF23)) | Intact FGF23, Day 35 (intact FGF23 (iFGF23)) | C-terminal FGF23, Change from baseline ([2]; Day 1) | C-terminal FGF23, Change from baseline ([2]; Day 7) | other results |
| --- | --- | --- | --- | --- | --- | --- | --- | --- | --- | --- | --- | --- | --- | --- | --- | --- | --- | --- | --- | --- | --- |
| iron dextran [reference compound] | 77.8 ng/mL | significantly increase | 53% | 16 (53) n (%) | 189 ± 21 | 2.2 ± 0.2 g/dL | 44 ± 3.0% | increased TSAT and serum hepcidin levels significantly | significantly increased | −13.4% | −4.4% | −1.3% | −9.3% | no significant changes; also recorded: but not iron dextran induced a significant increase | 24.6 ± 1.9 pg/mL | 27.5 ± 1.7 pg/mL | 28.4 ± 2.1 pg/mL | 28.3 ± 1.7 pg/mL | −82.5% | −85.6% | C-terminal FGF23, Change from baseline ([2]; Day 14): −87.3%; C-terminal FGF23, Change from baseline ([2]; Day 35): −80.0%; effect on cFGF23 levels [2]: rapidly lowered; lowering of cFGF23 levels within 24 hours [2]: 80%; C-terminal FGF23, Day 1 [2]: 152 ± 17.5 RU/mL; C-terminal FGF23, Day 7 [2]: 114 ± 17.7 RU/mL; C-terminal FGF23, Day 14 [2]: 107 ± 16.0 RU/mL; C-terminal FGF23, Day 35 [2]: 170 ± 51.2 RU/mL |
| polynuclear iron (III)-hydroxide 4(R)-(poly-(1→4)-O-α-glucopyranosyl)-oxy-2(R),3(S),5(R),6-tetrahydroxy-hexanoate [FCM] | 33.4 ng/mL | significantly increase | 60% | 15 (60) n (%) | 306 ± 41 | 2.0 ± 0.3 g/dL | 68 ± 6.4% | increased TSAT and serum hepcidin levels significantly | significantly increased | 128.0% | 91.8% | 59.1% | 2.0% | increased significantly by day 1; also recorded: significant increase | 65.2 ± 8.0 pg/mL | 54.9 ± 18.0 pg/mL | 45.8 ± 6.9 pg/mL | 28.1 ± 2.9 pg/mL | −78.6% | −80.9% | occurrence of transient reductions in serum phosphate levels (serum phosphate): up to 60%; safe and tolerated single intravenous dose, as multiple of the equivalent of 1,000 mg iron once weekly in humans [3]: up to 60 times; absolute difference in proportion with hemoglobin increase, FCM vs iron dextran ([1]; 95% CI −23.2, 36.6%, p=0.79): 6.7%; increase in serum ferritin by day 7 compared to iron dextran ([1]; thereafter levels similar): greater increase; iFGF23 in FCM subjects who developed serum phosphate<2.0 mg/dL vs the remaining (intact FGF23 (iFGF23); stratified analysis): greater iFGF23 by day 1 that persisted through day 14; C-terminal FGF23, Change from baseline ([2]; Day 14): −77.5%; C-terminal FGF23, Change from baseline ([2]; Day 35): −78.9%; effect on cFGF23 levels [2]: rapidly lowered; lowering of cFGF23 levels within 24 hours [2]: 80%; C-terminal FGF23, Day 1 [2]: 177 ± 12.4 RU/mL; C-terminal FGF23, Day 7 [2]: 165 ± 34.9 RU/mL; C-terminal FGF23, Day 14 [2]: 170 ± 55.8 RU/mL; C-terminal FGF23, Day 35 [2]: 182 ± 73.7 RU/mL; cFGF23 in FCM subjects who did vs did not develop serum phosphate<2.0 mg/dL ([2]; stratified analysis): decreased similarly in both groups; mean change in phosphate (phosphate): 1.9 mg/dL |

From patent US20140162974A1, “METHODS FOR MODULATION OF PHOSPHORUS AND FGF23” (Luitpold Pharmaceuticals, Inc., priority 2012, published 2014)
